Test results taken from PubChem BioAssay AID2060617 (Molecular Pharmacology Branch, DTP, NCI, 2025).

Tested on: 485368-065-R4-J2-PDC spheroids with HUVEC/MSC, viability
Assay: Anticancer human tumor 485368-065-R4-J2-PDC patient-derived pancreatic carcinoma cell line growth inhibition [CLK]
Details: for IC50: curve of first compound; for viability, T/C: stronger effect = lower value
Method in brief: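 Patient-derived tumor cells grown as complex spheroids with HUVEC endothelial cells and mesenchymal stem cells, treated with drug combinations. Concentrations descend in half-log steps from near clinical Cmax, or from 10 microM if Cmax unknown.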

[1] = second compound 0.0316 µM, first compound 0.0316 µM
[2] = second compound 0.0316 µM, first compound 0.1 µM
[3] = second compound 0.0316 µM, first compound 0.316 µM
[4] = second compound 0.0316 µM, first compound 1 µM
[5] = second compound 0.1 µM, first compound 0.0316 µM
[6] = second compound 0.1 µM, first compound 0.1 µM
[7] = second compound 0.1 µM, first compound 0.316 µM
[8] = second compound 0.1 µM, first compound 1 µM
[9] = second compound 0.316 µM, first compound 0.0316 µM
[10] = second compound 0.316 µM, first compound 0.1 µM
[11] = second compound 0.316 µM, first compound 0.316 µM
[12] = second compound 0.316 µM, first compound 1 µM
[13] = second compound 1 µM, first compound 0.0316 µM
[14] = second compound 1 µM, first compound 0.1 µM
[15] = second compound 1 µM, first compound 0.316 µM
[16] = second compound 1 µM, first compound 1 µM
[17] = second compound 3.16 µM, first compound 0.0316 µM
[18] = second compound 3.16 µM, first compound 0.1 µM
[19] = second compound 3.16 µM, first compound 0.316 µM
[20] = second compound 3.16 µM, first compound 1 µM
[21] = second compound 10 µM, first compound 0.0316 µM
[22] = second compound 10 µM, first compound 0.1 µM
[23] = second compound 10 µM, first compound 0.316 µM
[24] = second compound 10 µM, first compound 1 µM
[25] = second compound 0.0316 µM, first compound 3.16 µM
[26] = second compound 0.0316 µM, first compound 10 µM
[27] = second compound 0.1 µM, first compound 3.16 µM
[28] = second compound 0.1 µM, first compound 10 µM
[29] = second compound 0.316 µM, first compound 3.16 µM
[30] = second compound 0.316 µM, first compound 10 µM
[31] = second compound 1 µM, first compound 3.16 µM
[32] = second compound 1 µM, first compound 10 µM
[33] = second compound 3.16 µM, first compound 3.16 µM
[34] = second compound 3.16 µM, first compound 10 µM
[35] = second compound 10 µM, first compound 3.16 µM
[36] = second compound 10 µM, first compound 10 µM
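Also: spheroids exposed to compounds for seven days.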
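For viability, T/C in this document: 100% = DMSO vehicle control wells.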

COc1c(OCCCN2CCOCC2)ccc2c3n(c(=NC(=O)c4cnc(N)nc4)nc12)CCN3 + CNC(=O)c1ccc(Nc2nc(OC3CCCC3)c3c(-c4ccc5nc(C)oc5c4)c[nH]c3n2)c(OC)c1
IC50 (second compound 0.0316 µM): 220 nM | IC50 (second compound 0.1 µM): 243 nM | IC50 (second compound 0.316 µM): 136 nM | IC50 (second compound 1 µM): 54.9 nM | IC50 (second compound 3.16 µM): 42.6 nM | IC50 (second compound 10 µM): 35.3 nM | viability, T/C (second compound 0.0316 µM, first compound 0.00316 µM): 81.5% | viability, T/C (second compound 0.0316 µM, first compound 0.01 µM): 124% | viability, T/C [1]: 111% | viability, T/C [2]: 66.1% | viability, T/C [3]: 44.5% | viability, T/C [4]: 40.5% | viability, T/C (second compound 0.1 µM, first compound 0.00316 µM): 103% | viability, T/C (second compound 0.1 µM, first compound 0.01 µM): 121% | viability, T/C [5]: 110% | viability, T/C [6]: 68.4% | viability, T/C [7]: 48% | viability, T/C [8]: 39.9% | viability, T/C (second compound 0.316 µM, first compound 0.00316 µM): 72.4% | viability, T/C (second compound 0.316 µM, first compound 0.01 µM): 80.8% | viability, T/C [9]: 72.6% | viability, T/C [10]: 54.9% | viability, T/C [11]: 36.2% | viability, T/C [12]: 37.3% | viability, T/C (second compound 1 µM, first compound 0.00316 µM): 76.7% | viability, T/C (second compound 1 µM, first compound 0.01 µM): 65.4% | viability, T/C [13]: 59.6% | viability, T/C [14]: 42.1% | viability, T/C [15]: 31.1% | viability, T/C [16]: 30.5% | viability, T/C (second compound 3.16 µM, first compound 0.00316 µM): 71.2% | viability, T/C (second compound 3.16 µM, first compound 0.01 µM): 61.2% | viability, T/C [17]: 56.2% | viability, T/C [18]: 38.5% | viability, T/C [19]: 28.4% | viability, T/C [20]: 28.5% | viability, T/C (second compound 10 µM, first compound 0.00316 µM): 66.4% | viability, T/C (second compound 10 µM, first compound 0.01 µM): 65.3% | viability, T/C [21]: 49.7% | viability, T/C [22]: 38.8% | viability, T/C [23]: 27.1% | viability, T/C [24]: 30.1%

C#Cc1c(F)ccc2cc(O)cc(-c3ncc4c(N5CC6CCC(C5)N6)nc(OCC56CCCN5CC(F)C6)nc4c3F)c12 (stereo unspecified) + CN1CCN(c2cc(C(=O)Nc3cc4cc(-c5cnn(C)c5)ccc4cn3)ccn2)CC1
IC50 (second compound 0.0316 µM): > 10000 nM | IC50 (second compound 0.1 µM): > 10000 nM | IC50 (second compound 0.316 µM): 9710 nM | IC50 (second compound 1 µM): < 31.6 nM | IC50 (second compound 3.16 µM): < 31.6 nM | IC50 (second compound 10 µM): < 31.6 nM | viability, T/C [1]: 94.6% | viability, T/C [2]: 106% | viability, T/C [3]: 96.7% | viability, T/C [4]: 116% | viability, T/C [25]: 107% | viability, T/C [26]: 117% | viability, T/C [5]: 112% | viability, T/C [6]: 115% | viability, T/C [7]: 96.3% | viability, T/C [8]: 111% | viability, T/C [27]: 96% | viability, T/C [28]: 75.8% | viability, T/C [9]: 90.3% | viability, T/C [10]: 90.9% | viability, T/C [11]: 82.5% | viability, T/C [12]: 80.7% | viability, T/C [29]: 68.6% | viability, T/C [30]: 49.3% | viability, T/C [13]: 3.21% | viability, T/C [14]: 2.21% | viability, T/C [15]: 1.7% | viability, T/C [16]: 2.24% | viability, T/C [31]: 1.78% | viability, T/C [32]: 1.33% | viability, T/C [17]: 1.18% | viability, T/C [18]: 1.09% | viability, T/C [19]: 1.08% | viability, T/C [20]: 1.21% | viability, T/C [33]: 1.29% | viability, T/C [34]: 1.21% | viability, T/C [21]: 1.44% | viability, T/C [22]: 2.45% | viability, T/C [23]: 1.6% | viability, T/C [24]: 1.34% | viability, T/C [35]: 2.21% | viability, T/C [36]: 1.87%

C=C(F)C(=O)N1CCN(c2nc(OCC3CCCN3C)nc3c2CCN(c2cccc4cccc(Cl)c24)C3)CC1CC#N (stereo unspecified) + CN1CCN(c2cc(C(=O)Nc3cc4cc(-c5cnn(C)c5)ccc4cn3)ccn2)CC1
IC50 (second compound 0.0316 µM): > 10000 nM | IC50 (second compound 0.1 µM): > 10000 nM | IC50 (second compound 0.316 µM): > 10000 nM | IC50 (second compound 1 µM): < 31.6 nM | IC50 (second compound 3.16 µM): < 31.6 nM | IC50 (second compound 10 µM): < 31.6 nM | viability, T/C [1]: 114% | viability, T/C [2]: 116% | viability, T/C [3]: 108% | viability, T/C [4]: 114% | viability, T/C [25]: 105% | viability, T/C [26]: 110% | viability, T/C [5]: 109% | viability, T/C [6]: 105% | viability, T/C [7]: 106% | viability, T/C [8]: 109% | viability, T/C [27]: 105% | viability, T/C [28]: 95.3% | viability, T/C [9]: 89.7% | viability, T/C [10]: 85.6% | viability, T/C [11]: 89.4% | viability, T/C [12]: 77.8% | viability, T/C [29]: 77.4% | viability, T/C [30]: 57.4% | viability, T/C [13]: 1.02% | viability, T/C [14]: 1.73% | viability, T/C [15]: 2.07% | viability, T/C [16]: 1.58% | viability, T/C [31]: 1.92% | viability, T/C [32]: 3.55% | viability, T/C [17]: 1.58% | viability, T/C [18]: 1.31% | viability, T/C [19]: 1.13% | viability, T/C [20]: 2.84% | viability, T/C [33]: 1.64% | viability, T/C [34]: 2% | viability, T/C [21]: 1.69% | viability, T/C [22]: 2.28% | viability, T/C [23]: 1.56% | viability, T/C [24]: 2.01% | viability, T/C [35]: 3.1% | viability, T/C [36]: 1.56%
